From article PMC3727903 (Bioorganic & medicinal chemistry letters, 2012)

Key:
[1] = system: PGE2 production in HCA-7 colon cancer cells; experiment: PGE2 production assay in IL-1β-treated HCA-7 cells; type: cell-based; conditions: Homo sapiens, HCA-7, read-out: PGE2 (%): % of inhibition of PGE2 levels in HCA-7 cells, 1 μM concentration; ± SD (n = 3); NR = no observed reduction
COX-2 = target: T1, COX-2 (Homo sapiens, UniProt P35354); experiment: COX-2 cell-free assay; conditions: read-out: COX-2 (%): % of inhibition of COX-2 levels in vitro
T1 sequence (P35354 18-604): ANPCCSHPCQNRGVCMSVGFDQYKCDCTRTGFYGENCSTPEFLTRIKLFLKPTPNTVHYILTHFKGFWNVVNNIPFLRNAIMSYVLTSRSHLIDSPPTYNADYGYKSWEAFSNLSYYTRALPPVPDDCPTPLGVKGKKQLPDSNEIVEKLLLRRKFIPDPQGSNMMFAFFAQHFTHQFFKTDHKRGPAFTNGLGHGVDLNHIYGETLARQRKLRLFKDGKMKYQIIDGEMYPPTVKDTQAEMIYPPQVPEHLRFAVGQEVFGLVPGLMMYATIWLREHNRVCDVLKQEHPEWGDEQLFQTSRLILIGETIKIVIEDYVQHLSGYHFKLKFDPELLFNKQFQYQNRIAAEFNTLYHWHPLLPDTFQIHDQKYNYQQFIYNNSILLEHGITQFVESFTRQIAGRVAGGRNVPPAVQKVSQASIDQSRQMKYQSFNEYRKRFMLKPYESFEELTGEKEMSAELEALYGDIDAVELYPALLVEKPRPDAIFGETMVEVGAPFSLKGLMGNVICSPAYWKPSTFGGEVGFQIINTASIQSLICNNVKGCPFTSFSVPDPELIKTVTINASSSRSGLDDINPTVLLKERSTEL

inhibition at 5 µM (COX-2) [%] | Compound | inhibition at 1 µM [1] [%]
 | O=C(c1ccccc1)c1sc(Nc2ccc3c(c2)OCO3)nc1-c1ccccc1 [5a] | < 0
 | COc1ccc(Nc2nc(-c3ccccc3)c(C(=O)c3ccccc3)s2)cc1 [5c] | < 0
-16.9 ± 10 | Cc1nc(Nc2ccc(Oc3ccccc3)cc2)sc1C(C)O (stereo not drawn) [5l] | 
